Source: the NIST ThermoML archive (doi:10.1021/je8009978)
± gives the expanded uncertainty stated by the source.

Key:
[1] = refractive index (Na D-line) (dimensionless); conditions: 298.15 K; 101.33 kPa; Liquid; Standard Abbe refractometry
[2] = Liquid

CC(C)CO [2-methyl-1-propanol]
refractive index [1]: 1.3939 ± 0.0004 | mass density ([2]; 298.15 K, 101.33 kPa, Vibrating tube method): 797.6 ± 0.3 kg/m3 | Normal boiling temperature ([2]; Closed cell (Static) method): 107.83 ± 0.2 °C
